The values that follow come from patent publication US20250002473A1, “QUINOXALINE DERIVED SULFONAMIDES WITH EGFR DEGRADATION ACTIVITIES AND THEIR USES THEREOF” (Accutar Biotechnology Inc., priority 2023, published 2025).

Holding throughout (type): cell-based
One experiment has as its system HCC827. The experiment is described as follows: Cell growth inhibition assay (CellTiter-Glo), HCC827. The settings on record: Homo sapiens, 72 h, Table 8, HCC827 cells, three days. The method, then:
(§1) HCC827_LTC and HCC827_DTC cell lines were generated by first transducing HCC827 cells (ATCC) with lentiviral particles expressing codon-optimized human EGFR L858R/T790M/C797S (LTC) mutant or Del19/T790M/C797S (DTC) mutant, and then selecting under 5 μg/ml puromycin treatment for a week. The endogenous EGFR alleles were subsequently abolished using the Alt-R™ CRISPR-Cas9 technology (Integrated DNA Technologies). Single clones of HCC827_LTC and HCC827_DTC were selected and validated for endogenous EGFR knockout using Sanger sequencing.
(§2) Cells were seeded in a 96-well plate (Corning 3610) with 90 μL of culture medium per well, and plates were incubated at 37° C. overnight. A 1,000× DMSO stock solution of the desired compound was prepared the following day. A compound dilution plate was prepared by diluting the stock solution 1:100 in the corresponding cell culture medium, 10 μL of the diluted compound solution was added to each 96-well plate well containing the seeded cells. Then, the cells were cultured at 37° C. for three days following compound treatment, 100 μL of CellTiter-Glo reagents (Promega G7573) was added to each well of the 96-well plate. The content of the wells was mixed by shaking continuously for 10 min, and luminescence was measured using Envision (PerkinElmer). The data were analyzed with GraphPad Prism 9 (see FIG. 50).
(§3) Table 6, Table 7, and Table 8 list the cell growth inhibition results, where Gls0 represents the compound concentration to cause 50% cell growth inhibition in comparison with DMSO.
Background: Cellular ATP, detected with luciferase, serves as a proxy for viable cell number.

The next experiment has as its system HCC827_DTC. The experiment is described as follows: Cell growth inhibition assay (CellTiter-Glo), HCC827_DTC. The settings on record: 72 h; Table 8; HCC827 expressing human EGFR Del19/T790M/C797S, endogenous EGFR knockout, three days. The protocol: as §1, §2, §3
In another experiment the test system is A431. Nature of the experiment: Cell growth inhibition assay (CellTiter-Glo), A431. The settings on record: Homo sapiens, A-431, 72 h, Table 8; A431 cells, three days; read-out: A431 GI50. The procedure, abridged: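 This growth inhibition assay reports GI50, the compound concentration producing 50% inhibition of cell growth relative to DMSO. Seeded cells (90 μL medium per well, 96-well Corning 3610 plates, overnight at 37° C.) received 10 μL of compound diluted 1:100 from a 1,000× DMSO stock. Luminescence was measured on Envision (PerkinElmer) and analyzed in GraphPad Prism 9.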

For the next experiment, the system named is HCC827_LTC. The experiment is described as follows: Cell growth inhibition assay (CellTiter-Glo), HCC827_LTC. The settings on record: 72 h; Table 8; HCC827 expressing human EGFR L858R/T790M/C797S, endogenous EGFR knockout, three days. The method, then: as §1, §2, §3
In the next experiment the test system is NCI-H2073. Nature of the experiment: Cell growth inhibition assay (CellTiter-Glo), NCI-H2073. The settings on record: 72 h; Table 8; NCI-H2073 cells, three days. The method, then: as §2, with “Then, the cells were cultured at 37° C. for three days following compound treatment, 100 μL of CellTiter-Glo reagents (Promega G7573) was added to each well of the 96-well plate.” left out
as §3

One may read the GI50 as the concentration at which growth is held to half of that of the control. As to `COc1cc(N2CCC(N3CCN(CCc4cc(F)c(C5CCC(=O)NC5=O)c(F)c4)CC3)CC2)c(-c2cnn(C)c2)cc1Nc1ncc(Br)c(Nc2ccc3nccnc3c2NS(C)(=O)=O)n1` (stereo not drawn) [Compound 70, N-(6-((5-bromo-2-((4-(4-(4-(4-(2,6-dioxopiperidin-3-yl)-3,5-difluorophenethyl)piperazin-1-yl)piperidin-1-yl)-2-methoxy-5-(1-methyl-1H-pyrazol-4-yl)phenyl)amino)pyrimidin-4-yl)amino)quinoxalin-5-yl)methanesulfonamide], the GI50 with HCC827 worked out at 0.96 nM; in the experiment with HCC827_DTC it was 1.53 nM; in the experiment on A431, 160 nM; with HCC827_LTC, 0.45 nM; in the experiment with NCI-H2073, 134 nM.
On to `COc1cc(N2CCC(N3CCN(CCc4ccc(NC5CCC(=O)NC5=O)cc4)CC3)CC2)c(-c2cnn(C)c2)cc1Nc1ncc(Br)c(Nc2ccc3nccnc3c2NS(C)(=O)=O)n1` (stereo not drawn) [Compound 78, N-(6-((5-bromo-2-((4-(4-(4-(4-((2,6-dioxopiperidin-3-yl)amino)phenethyl)piperazin-1-yl)piperidin-1-yl)-2-methoxy-5-(1-methyl-1H-pyrazol-4-yl)phenyl)amino)pyrimidin-4-yl)amino)quinoxalin-5-yl)methanesulfonamide], for which the GI50 with HCC827 was 1 nM; in the experiment with HCC827_DTC, 1.96 nM; with A431 it was 436 nM; with HCC827_LTC it was 1.81 nM; in the experiment on NCI-H2073, 403 nM.
Turning to `COc1cc(N2CCN(C(=O)CN3CCC(c4ccc(NC5CCC(=O)NC5=O)cc4)CC3)CC2)c(-c2cnn(C)c2)cc1Nc1ncc(Br)c(Nc2ccc3nccnc3c2NS(C)(=O)=O)n1` (stereo not drawn) [Compound 79, N-(6-((5-bromo-2-((4-(4-(2-(4-(4-((2,6-dioxopiperidin-3-yl)amino)phenyl)piperidin-1-yl)acetyl)piperazin-1-yl)-2-methoxy-5-(1-methyl-1H-pyrazol-4-yl)phenyl)amino)pyrimidin-4-yl)amino)quinoxalin-5-yl)methanesulfonamide], the concentration for 50% growth inhibition (GI50) with HCC827 came to 0.22 nM; in the experiment with HCC827_DTC, 2.6 nM; in the experiment on A431, 164 nM; in the experiment on HCC827_LTC, 0.77 nM; with NCI-H2073, 654 nM.
On the same counts, the results for `COc1cc(N2CCN(C(=O)CN3CCN(c4ccc(NC5CCC(=O)NC5=O)cc4)CC3)CC2)c(-c2cnn(C)c2)cc1Nc1ncc(Br)c(Nc2ccc3nccnc3c2NS(C)(=O)=O)n1` (stereo not drawn) [Compound 80, N-(6-((5-bromo-2-((4-(4-(2-(4-(4-((2,6-dioxopiperidin-3-yl)amino)phenyl)piperazin-1-yl)acetyl)piperazin-1-yl)-2-methoxy-5-(1-methyl-1H-pyrazol-4-yl)phenyl)amino)pyrimidin-4-yl)amino)quinoxalin-5-yl)methanesulfonamide] are 6.81 nM, 79.4 nM, 389 nM, 11 nM and 721 nM.
For `COc1cc(N2CCC(N3CC4(CN(C(=O)CC5(O)CCN(c6ccc(NC7CCC(=O)NC7=O)cc6F)CC5)C4)C3)CC2)c(-c2cnn(C)c2)cc1Nc1ncc(Br)c(Nc2ccc3nccnc3c2NS(C)(=O)=O)n1` (stereo not drawn) [Compound 81, N-(6-((5-bromo-2-((4-(4-(6-(2-(1-(4-((2,6-dioxopiperidin-3-yl)amino)-2-fluorophenyl)-4-hydroxypiperidin-4-yl)acetyl)-2,6-diazaspiro[3.3]heptan-2-yl)piperidin-1-yl)-2-methoxy-5-(1-methyl-1H-pyrazol-4-yl)phenyl)amino)pyrimidin-4-yl)amino)quinoxalin-5-yl)methanesulfonamide], the concentration for 50% growth inhibition (GI50) in the experiment on HCC827 is 2.41 nM; in the experiment on HCC827_DTC it was 4.21 nM; with A431, 746 nM; with HCC827_LTC, 2.03 nM; in the experiment on NCI-H2073, more than 3000 nM.
On to `COc1cc(N2CCC(N3CCN(c4ccc5c(c4)C(=O)N(C4CCC(=O)NC4=O)C5=O)CC3)CC2)c(-c2cnn(C)c2)cc1Nc1ncc(Br)c(Nc2ccc3nccnc3c2NS(C)(=O)=O)n1` (stereo not drawn) [Compound 82, N-(6-((5-bromo-2-((4-(4-(4-(2-(2,6-dioxopiperidin-3-yl)-1,3-dioxoisoindolin-5-yl)piperazin-1-yl)piperidin-1-yl)-2-methoxy-5-(1-methyl-1H-pyrazol-4-yl)phenyl)amino)pyrimidin-4-yl)amino)quinoxalin-5-yl)methanesulfonamide], for which the 50% growth inhibitory concentration (GI50) with HCC827 is 2.82 nM; in the experiment on HCC827_DTC, 30.8 nM; in the experiment with A431, more than 3000 nM; with HCC827_LTC, 9.38 nM; in the experiment on NCI-H2073, more than 3000 nM.
As to `COc1cc(N2CCC(CN3CCN(c4ccc5c(c4)C(=O)N(C4CCC(=O)NC4=O)C5=O)CC3)CC2)c(-c2cnn(C)c2)cc1Nc1ncc(Br)c(Nc2ccc3nccnc3c2NS(C)(=O)=O)n1` (stereo not drawn) [Compound 83, N-(6-((5-bromo-2-((4-(4-((4-(2-(2,6-dioxopiperidin-3-yl)-1,3-dioxoisoindolin-5-yl)piperazin-1-yl)methyl)piperidin-1-yl)-2-methoxy-5-(1-methyl-1H-pyrazol-4-yl)phenyl)amino)pyrimidin-4-yl)amino)quinoxalin-5-yl)methanesulfonamide], the concentration for 50% growth inhibition (GI50) in the experiment with HCC827 is 5.51 nM; with HCC827_DTC, 19.4 nM; in the experiment with A431, more than 3000 nM; in the experiment with HCC827_LTC it was 8.58 nM; in the experiment with NCI-H2073 it was more than 3000 nM.
On to `COc1cc(N2CCN(CC3CCN(c4ccc5c(c4)C(=O)N(C4CCC(=O)NC4=O)C5=O)CC3)CC2)c(-c2cnn(C)c2)cc1Nc1ncc(Br)c(Nc2ccc3nccnc3c2NS(C)(=O)=O)n1` (stereo not drawn) [Compound 84, N-(6-((5-bromo-2-((4-(4-((1-(2-(2,6-dioxopiperidin-3-yl)-1,3-dioxoisoindolin-5-yl)piperidin-4-yl)methyl)piperazin-1-yl)-2-methoxy-5-(1-methyl-1H-pyrazol-4-yl)phenyl)amino)pyrimidin-4-yl)amino)quinoxalin-5-yl)methanesulfonamide], for which the GI50 is 1.18 nM in the experiment with HCC827; 10.7 nM in the experiment on HCC827_DTC; more than 3000 nM with A431; 3.06 nM in the experiment on HCC827_LTC; more than 3000 nM in the experiment with NCI-H2073.
For `COc1cc(N2CCC(N3CCN(CC4CCN(c5ccc6c(c5)C(=O)N(C5CCC(=O)NC5=O)C6=O)CC4)CC3)CC2)c(-c2cnn(C)c2)cc1Nc1ncc(Br)c(Nc2ccc3nccnc3c2NS(C)(=O)=O)n1` (stereo not drawn) [Compound 85, N-(6-((5-bromo-2-((4-(4-(4-((1-(2-(2,6-dioxopiperidin-3-yl)-1,3-dioxoisoindolin-5-yl)piperidin-4-yl)methyl)piperazin-1-yl)piperidin-1-yl)-2-methoxy-5-(1-methyl-1H-pyrazol-4-yl)phenyl)amino)pyrimidin-4-yl)amino)quinoxalin-5-yl)methanesulfonamide], the GI50 with HCC827 was 2.72 nM; in the experiment with HCC827_DTC it was 7.7 nM; with A431 it was more than 3000 nM; in the experiment on HCC827_LTC, 3.57 nM; in the experiment on NCI-H2073, more than 3000 nM.
